{
  "source": "patent US11925611B2",
  "about": "“Use of ZT-1A and analogs thereof to prevent and/or treat neurodegenerative and neurocognitive disorders” (United States Government as Represented by the Department …, priority 2021, dated 2024)",
  "key": {"NKCC1": {"system": "NKCC1", "assay": "Cellular inhibition of NKCC1 phosphorylation (pThr203)", "format": "cell-based", "conditions": "Isotonic conditions; n = 3; — = no inhibition; read-out: NKCC1 pThr203 (μM) Iso", "text": "(§1) 8. Cellular Activity Profile of Inhibitors with the Salicyclic Amide\n(§2) A list of the compounds evaluated for their ability to inhibit phosphorylation of SPAK/NKCC1/KCC3 activity is illustrated in Table 1 below."}, "KCC3": {"system": "KCC3", "assay": "Cellular inhibition of KCC3 phosphorylation (pThr991, pThr1048)", "format": "cell-based", "conditions": "n = 3, — = no inhibition", "text": "as §1, §2"}, "BCAS mice [1]": {"system": "BCAS mice", "assay": "Morris water maze (MWM) test in modified BCAS mice", "format": "in vivo, C57BL/6J mice", "text": "(§3) Clinically, most patients with intracranial atherosclerotic stenosis suffer from permanent stenosis without occlusion. Therefore, to mimic clinical atherosclerotic stenosis with permanent carotid artery (CCA) hypoperfusion, a modified BCAS model was adapted by ligating the CCA guided with a 30 gauge needle (0.31 mm diameter) in the right CCA and a 33 gauge needle (0.21 mm diameter) in the left CCA with a 4-0 silk suture. […] Next, changes of total NKCC1 (tNKCC1) protein expression were surveyed in different brain regions at 2 and 4 wks post-surgery by immunofluorescence staining (IF). […] Therefore, in the rest of the study, the investigation was focused on its association to white matter GFAP^+ astrogliosis and lesion of CC and external capsul (EC) tracks. […] However, by 2 wks post-BCAS surgery, tNKCC1 immunofluorescence intensity in the CC tracks was increased by ˜3 folds (p<0.05), and further elevated to ˜6 folds by 4 wks (p<0.05, arrowhead). Data are mean±SEM, n=4, *p<0.05, **p<0.01. […] The upregulation of tNKCC1 and GFAP protein expression in the CC is correlated, with a Pearson's correlation coefficient of r=0.9 (p<0.001). […] In contrast, no elevated tNKCC1 protein was detected either in Iba1^+ microglia/macrophages or in Olig2+ oligodendrocytes (OL) at 4 wks post-BCAS surgery (FIG. 1D). Without wishing to be bound by theory, these findings indicate that upregulation of NKCC1 expression and activity in reactive astrocytes may play a critical role in white matter inflammation, OL death, and demyelination after BCAS. Next, whether administration of SPAK inhibitor ZT-1a reduces WML and improves cognitive functions was examined. Starting at 14 days after BCAS surgery in mice (male), either vehicle DMSO (Veh, 2 ml/kg) or ZT-1a (5 mg/kg, every 72 h, i.p) was administered every 3 days, until they were sacrificed at day 35 post-BCAS (FIG. 3A). […] Motor functions are similar in all groups and average swimming speeds were not different in the Sham-, Veh- and ZT-1a-treated mice. Data are mean±SEM, n=6 (Sham and ZT-1a) or 5 (Veh), *p<0.01 vs. sham, *p<0.05 vs. Veh."}, "BCAS mice [2]": {"system": "BCAS mice", "assay": "Ex-vivo MRI DTI analysis of white matter lesion in BCAS mice", "parameters": "species or system C57BL/6J mice", "conditions": "4 wks post-BCAS, vs Veh-control", "text": "as §3, with “Veh. After completion of the neurological function tests in the Veh-control and ZT-1a-treated BCAS cohort mice (as shown in FIG. 3A and FIG. 3B), ex-vivo brains were harvested for MRI DTI (diffusion tensor imaging) analysis of WML at 4 wks post-BCAS detected by DTI. The fractional anisotropy (FA), radial diffusivity (RD), and mean diffusivity (MD) of the CC and EC tracks were analyzed. Representative images of the DEC maps in FIG. 4A show severe loss of axonal fibers (arrowheads) in the CC and left EC of the Veh-control brains. […] These observations are consistent with changes of FA, RD, and MD values (FIG. 4B). […] Then MBP expression levels were measured in these brains by immunostaining. […]” for “Veh.”"}},
  "note": "Where two headings read alike, the source gives them in different places.",
  "data": [
    {"smiles": "Cc1cc(C(C#N)c2ccc(Cl)cc2)c(Cl)cc1NC(=O)c1cc(Cl)ccc1O", "note": "(centres unmarked) [1a (ZT-1a)]", "values": [
      {"measurement": "IC50", "setting": "NKCC1", "value": 1, "unit": "µM"},
      {"measurement": "IC50", "setting": "KCC3; Hypotonic conditions, read-out: KCC3 pThr1048 (μM) hypo", "value": 3, "unit": "µM"},
      {"measurement": "IC50", "setting": "KCC3; Isotonic conditions, read-out: KCC3 pThr991 (μM) Iso", "value": 3, "unit": "µM"},
      {"measurement": "IC50", "setting": "KCC3; Isotonic conditions, read-out: KCC3 pThr1048 (μM) Iso", "value": 1, "unit": "µM"},
      {"measurement": "escape latency in MWM test", "setting": "BCAS mice [1]; 5 mg/kg i.p. every 72 h from day 14 after BCAS, 4 wks post-BCAS, vs Veh-treated BCAS mice", "value": "significantly less escape latency"},
      {"measurement": "time in the target quadrant, spatial probe trial", "setting": "BCAS mice [1]; 5 mg/kg i.p. every 72 h from day 14 after BCAS, mean±SEM, n=6, Veh 15.3±1.2 sec, p<0.05", "value": "26.3 ± 4.3", "unit": "s"},
      {"measurement": "average swimming speeds", "setting": "BCAS mice [1]; Sham-, Veh- and ZT-1a-treated mice compared", "value": "not different"},
      {"measurement": "integrity of the CC and EC tracks (DEC maps)", "setting": "BCAS mice [2]; 5 mg/kg i.p. every 72 h, both hemispheres", "value": "better-preserved integrity"},
      {"measurement": "fractional anisotropy (FA) values", "setting": "BCAS mice [2]; p<0.05", "value": "significantly higher"},
      {"measurement": "mean diffusivity (MD) values", "setting": "BCAS mice [2]; p<0.05", "value": "lower"},
      {"measurement": "radial diffusivity (RD) values", "setting": "BCAS mice [2]; p<0.05", "value": "lower"}
    ]}
  ]
}
